Results taken from US6300327A, “Compositions and methods for potentiation of neurotrophin activity” (The University of Southern California, priority 1997, dated 2001).

Assays:
[1] = test system: forebrain cholinergic neurons (cultures of rat basal forebrain); assay: ChAT activity in primary cultures of fetal rat basal forebrain (septal) cholinergic neurons treated with neurotrophins and K-252 compounds; type: cell-based
Procedure: Recombinant human NGF (rhNGF), BDNF (rhBDNF), and NT-3 (rhNT-3) and K-252b were added to primary cultures of fetal rat brain neurons containing either forebrain cholinergic or midbrain dopaminergic neurons. A broad range of concentrations of K-252b were tested in presence of 50 ng/ml rhNGF, 200 ng/ml rhBDNF and 1 μg/ml rhNT-3, growth factor concentrations producing maximal trophic actions on cholinergic neurons. The trophic action was monitored by measuring the activity of ChAT, a parameter reflecting both survival and transmitter-specific differentiation of cholinergic cells.
Primary cultures of fetal rat brain septal and mesencephalic cells were prepared in a heretofore known manner [Knusel et al., supra]. Briefly, defined areas were dissected from fetal rat brains (Wistar, E15-16, Charles River, Mass.). The septal area contained the cholinergic neurons from septum, diagonal band of Broca and nucleus basalis. The ventral mesencephalon containing the dopaminergic neurons of the substantia nigra and the ventral tegmental area was dissected and dissociated mechanically. The cells were plated in 16 mm multiwell plates precoated with polyethyleneimine (1 mg/ml, 37° C., overnight), containing 0.5 ml modified L-15 medium supplemented with 5% heat inactivated horse serum and 0.5% heat inactivated fetal calf serum. Modified L-15 was prepared [Knusel et al., "Selective and Nonselective Stimulation of Central Cholinergic and dopaminergic Development in vitro by Nerve Growth Factor, Basic Fibroblast Growth Factor, Epidermal Growth Factor, Insulin and the Insulin-like Growth Factors I and II," J. Neurosci. 10:558-570 (1990)] by adding various amino acids, vitamins, antibiotics, glucose and NaHCO3 to Leibovitz's L-15 medium (Gibco, Grand Island, N.Y.). Plating densities were 4×10^5 cells/cm^2 for basal forebrain cultures and 3×10^5 cells/cm^2 for mesencephalic cultures. Of these cells, 0.5 to 1% were cholinergic or dopaminergic, respectively. Growth factors were typically added on the second day of culture and the cells were grown for 5 or more days. For ChAT assays tissue was homogenized in 250 μl of 50 mM Tris-HCl buffer, pH 6.0 with 0.3% Triton X-100. [1-^14 C]acetylcoenzyme A (NEN) concentration was 20 μM and specific activity 4.09 Ci/mol. To measure dopamine uptake, cultures were preincubated for 5 min at 37° C. with 250 μl incubation solution (5 mM glucose, 1 mM ascorbic acid in PBS) containing 1 mM pargyline. [^3 H]dopamine (37 Ci/mmol) was then added to give a final concentration of 50 nM and the cultures were incubated for another 15 minutes. Blanks were obtained by incubating cells at 0° C.
FIG. 1 illustrates levels of ChAT activity in cultures of rat basal forebrain treated with rhNGF, rhBDNF, or rhNT- and K-252b. Growth factors were added on the second day of culture and the cells were grown for 5 days. Growth factor concentrations producing maximal elevations of ChAT activity were used. In FIG. 1, .largecircle. represents the control; .quadrature., 50 ng/ml rhNGF; Δ, 200 ng/ml rhBDNF; and .tangle-soliddn., 1 μg/ml rhNT-3. The ChAT stimulation mediated by all three neurotrophins was inhibited by K-252b at concentrations above 200 nM. […] N=4 per data point. Error bars represent SEMs and were omitted where they would have appeared smaller than the symbol.
These compounds were accordingly tested for possible NT-3 potentiation at lower concentrations than necessary for NGF inhibition. Culture conditions were as described in Example 1. Cultures were untreated (controls) or treated with 200 ng/ml NT-3 and increasing concentrations of the inhibitors. The findings are shown in FIG. 6, in which "Stau", "K2a", "K2b", "K57", "K58", "K59" represent, respectively, staurosporine, K-252a, K-252b, KT5720, KT5823, and KT5296. […] Staurosporine and KT5296 were ineffective.

[2] = test system: protein kinase activity of the platelet-derived growth factor; conditions: cell-free preparations; cited from earlier work
[3] = test system: epidermal growth factor and basic fibroblast growth factor receptors; assay: Receptor tyrosine phosphorylation induced by epidermal growth factor and basic fibroblast growth factor in PC12 cells; type: cell-based; conditions: K-252b
phospholipase C gamma-1 = assay: Tyrosine phosphorylation of phospholipase C gamma-1 and other cellular proteins in PC12 cells; type: cell-based
Procedure: To measure the status of trk tyrosine phosphorylation, PC12 cells were lysed and immunoprecipitated with anti-trk serum. The trk proteins were subjected to 7.5% SDS-PAGE and analyzed by immunoblotting with anti-phosphotyrosine antibodies as described in detail in the literature [Kaplan, D. R. et al., "PDGF beta receptor stimulates tyrosine phosphorylation of GAP and association of GAP with a signaling complex," Cell 61:125-133 (1990)]. Tyrosine phosphorylation of cellular proteins was assayed by probing Western blots of lysates of PC12 cells incubated with K-252b and NT-3 or NGF with anti-phosphotyrosine antibodies. Phospholipase C gammal was identified in these blots as described elsewhere [Vetter, M.L. et al., "Nerve growth factor rapidly stimulates tyrosine phosphorylation of phospholipase C-gammal by a kinase activity associated with the product of trk protooncogene," Proc. Natl Acad. Sci. USA 88:5650-5654 (1991)].

[4] = molecular target: cAMP-dependent protein kinase; conditions: in vitro assay systems; cited from earlier work
[5] = test system: chick dorsal root ganglia neurons (DRG); assay: Survival of dissociated chick DRG neurons (embryonic day 9); type: cell-based
Procedure: DRGs of embryonic day 9 chicks were dissected and dissociated using enzymatic and mechanical procedures as described in the literature [Rosenthal, A. et al., "Primary Structure and Biological Activity of a Novel Human Neurotrophic Factor," Neuron 4:767-773 (1990)]. 1800 neurons were plated per well in 96-well tissue culture plates pretreated with polyornithine (500 μg/ml) and laminin (10 μg/ml). Cells were incubated for 48 hrs with or without growth factors and the indicated concentrations of K-252b. Phase-bright cells with elaborated neurites 5× the diameter of the cell bodies were then counted.
Similar to the findings obtained in primary cultures of brain cholinergic neurons, low concentration of K-252b (50 nM) potentiated the survival promoting action of a maximally effective concentration of NT-3 (FIG. 3). Survival of dissociated chick DRG neurons in presence of rhNGF (100 ng/ml) or rhNT-3 (100 ng/ml) and K-252b is illustrated in FIG. 3; concentrations on the horizontal axis are for K-252b. The columns represent means +SEMs. […] High concentrations of K-252b (10 μM) inhibited the action of NGF on sensory neurons, as found for cholinergic neurons (FIG. 3).

CC12OC(CC1(O)C(=O)O)n1c3ccccc3c3c4c(c5c6ccccc6n2c5c31)CNC4=O (centres unmarked) [K-252b]
effect on ChAT actions of NGF or BDNF ([1]; 100 pM to 30 nM K-252b): without affecting | effect on potency and maximal efficacy of NT-3 (ChAT) ([1]; 50 nM K-252b): increased both potency and maximal efficacy | effect on NT-3 stimulation of ChAT activity ([1]; 10-100 nM K-252b with NT-3): same stimulatory effect as NGF | IC100 ([1]; Rattus norvegicus, Neuron, read-out: minimal concentration required to completely abolish the ChAT responses): ~2 µM | effect on stimulatory effects of NGF or BDNF on cholinergic neurons ([1]; low concentrations of K-252b): not potentiated | effect on ChAT increases mediated by bFGF, insulin and insulin-like growth factor-1 ([1]; non-neurotrophin growth factors): not affected | effect on trophic action of NGF on cholinergic neurons (ChAT) ([1]; relatively high dosages): completely and selectively prevent | inhibition of action of central cholinergic neurons ([1]; structural relatives, Example 6): inhibition | inhibition of protein kinase activity of the platelet-derived growth factor [2]: inhibits | effect on receptor responses induced by epidermal growth factor and basic fibroblast growth factor [3]: failed to influence | NT-3 mediated tyrosine phosphorylation of phospholipase C gamma-1 and other proteins (phospholipase C gamma-1; 50 nM K-252b + NT-3): enhanced | tyrosine phosphorylation of phospholipase C gamma-1 and other proteins in NGF treated cells (phospholipase C gamma-1; K-252b + NGF): inhibited | Ki [4]: 10 to 100 nM | effect on survival mediated by NGF or BDNF ([5]; 50 nM K-252b): failed to influence survival | number of neurons supported by combination with NT-3 ([5]; 50 nM K-252b + NT-3): identical to that supported by NGF alone | effect on survival promoting action of NT-3 ([5]; 50 nM K-252b, rhNT-3 100 ng/ml): potentiated | effect on action of NGF on sensory neurons ([5]; 10 μM K-252b, rhNGF 100 ng/ml): inhibited
